Laboratory results from patent US8785608B2, “Crystalline heteroaromatic fluoroglycoside hydrates, pharmaceuticals comprising these compounds and their use” (Sanofi, priority 2009, dated 2014).

What was measured:
Type in all cases: physicochemical
[1] = Humidity-resolved XRPD in humidity chamber (phase transitions); conditions: 25° C.
Experimental: The samples were subjected to a pre-defined humidity program lasting 48 hours in an SMS VGI-2000 chamber at a constant temperature of 25° C. XRPD patterns were collected continuously with a data collection time of between 6 and 11 min. (The amorphous sample was treated with the humidity-program reversed: first rising the humidity to 95%, then lowering it to 0% and rising to 95% again.).

[2] = Long term storage stability in glass vials (chemical stability); conditions: for Puirity (area %) / Total increase (area %): +40° C.
Description: The following tables 2 and 3 show data for the storage stability of crystalline compound of formula I in comparison to amorphous material of formula II. Samples of the compounds of formula I and II were packed into glass vials. Chemical stability was monitored over a period up 28 days under different conditions as indicated at each table.

[3] = Water vapour sorption (DVS), hygroscopicity; conditions: 80% r.h. (25° C.)
Experimental: The water sorption experiments were performed with a SPS11-10μ (Projekt Messtechnik). Open aluminium pans were used and the measurements were performed at 25° C. The measured data was evaluated via the software Excel (Microsoft).

[4] = open glass vials, 75% relative humidity, 7 d
[5] = open glass vials, 75% relative humidity, 14 d
[6] = open glass vials, 75% relative humidity, 28 d
[7] = open glass vials, 75% relative humidity, Initial

| relative humidity at which starting phase B transformed to phase C ([1]; humidity lowered) | relative humidity at which phase D transformed back into the starting phase ([1]; humidity raised) | relative humidity at which intermediate phase D formed ([1]; humidity raised again) | chemical stability during storage ([2]; 40° C. under dry conditions (closed vials) and 75% r.h) | Puirity (area %) ([2]; closed glass vials, 7 d) | Total increase (area %) ([2]; closed glass vials, 7 d) | Puirity (area %) ([2]; closed glass vials, 14 d) | Total increase (area %) ([2]; closed glass vials, 14 d) | Puirity (area %) ([2]; closed glass vials, 28 d) | Total increase (area %) ([2]; closed glass vials, 28 d) | Puirity (area %) ([2]; closed glass vials, Initial) | Puirity (area %) [2, 4] | Total increase (area %) [2, 4] | Puirity (area %) [2, 5] | Total increase (area %) [2, 5] | Puirity (area %) [2, 6] | Total increase (area %) [2, 6] | Puirity (area %) [2, 7] | hygroscopicity compared to the amorphous form [3] | Structure (SMILES) |
| --- | --- | --- | --- | --- | --- | --- | --- | --- | --- | --- | --- | --- | --- | --- | --- | --- | --- | --- | --- |
| about 2% | around 20 % rel. hum. | about 10% | better chemical stability | 97.2 area % | 0.3 area % | 97.1 area % | 0.4 area % | 97.0 area % | 0.5 area % | 97.5 area % | 97.3 area % | ≦0.2 area % | 97.3 area % | ≦0.2 area % | 97.3 area % | ≦0.2 area % | 97.3 area % | less hygroscopic | CC(C)c1[nH]nc(O[C@@H]2O[C@H](CO)[C@@H](F)[C@H](O)[C@H]2O)c1Cc1ccc(CCCC(=O)NC(CO)(CO)CO)cc1 [Crystalline hydrate I] |
| – | – | – | – | 96.5 area % | 0.5 area % | 96.1 area % | 0.9 area % | 95.6 area % | 1.4 area % | 97.0 area % | 96.2 area % | 0.5 area % | 95.9 area % | 1.1 area % | 95.5 area % | 1.5 area % | 97.0 area % | – | CC(C)c1[nH]nc(O[C@@H]2O[C@H](CO)[C@@H](F)[C@H](O)[C@H]2O)c1Cc1ccc(CCCC(=O)NC(CO)(CO)CO)cc1 [Amorphous sample, 4-{4-[3-((2S,3R,4R,5S,6R)-5-Fluoro-3,4-dihydroxy-6-hydroxymethyl-tetrahydro-pyran-2-yloxy)-5-isopropyl-1H-pyrazol-4-ylmethyl]-phenyl}-N-(2-hydroxy-1,1-bis-hydroxymethyl-ethyl)-butyramide, reference compound] |
